For the test, the system named is Wnt-LIGHT cells, Wnt3a-conditioned, luciferase reporter luminescence. Description: antagonism of Wnt3a pathway luciferase reporter – Wnt-LIGHT cells, luminescence, selectivity assay for Gli-SUFU antagonist project, dose response (AID 651570). For orientation: Reporter assays use an easily measured gene product as a stand-in for the process of interest.

The structures appear in SMILES notation. The source made the active and inactive calls.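 Rule for the calls: active = compounds that block the Wnt3a luciferase reporter with IC50 at or below 20 µM, flagged as nonspecific; inactive = the rest.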

As to `O=C(Nc1ccccc1)C1=C[C@H](C2CCCCC2)C[C@H](OCCCCO)O1`, the IC50 was > 50 µM (inactive).

Take `O=C(C[C@H]1C/C=C\C[C@H](NC(=O)OCC2c3ccccc3-c3ccccc32)C(=O)OC[C@@H]2CCCN2C1=O)N[C@H](CO)Cc1ccccc1`: the IC50 is > 50 µM (inactive).

As usually defined, the IC50 is the concentration that inhibits the measured activity by half.

These data come from PubChem BioAssay AID651570 (Sanford-Burnham Center for Chemical Genomics, 2012).
